One series deals with mu receptors. Kind of series: in vitro affinity for mu receptors. In kind it is binding. To be noted: for IC50: Table 3, read-out: mu rec. IC50. Here is the method:
(§1) The "in vitro" study of the affinity of the compounds according to the invention for the three opium receptors is carried out in accordance with the technique described by F. Roman and coll. in J. Pharm. Pharmacol. 1987, 39, p. 404-407 and the study of the affinity for PCP receptors is carried out in accordance with the technique described by Vignon J. and coll. in "Brain Res." 1983; 280, p. 194-7 and 1986; 378, p. 133-41.
(§2) The results shown in table 3 are, for each receptor studied, expressed in IC50, which are the nanomolar concentrations of the dissolved products which are capable of inhibiting 50% of the bonds between the specific radioactive ligand to the receptor under consideration.

Series [1] in a line: alkaline duodenal secretion in anaesthetized rats. It is filed as in vivo, male rats. The note with it: 1 mg/kg intravenously; for Increase AUC 1 2 h: AUC of alkaline flow rate 1 h to 2 h compared with control animals; for Increase in secretion: maximum increase, anaesthetized rats. As to the method: The activity of the products on alkaline duodenal secretion in rats is studied in accordance with a technique described by FLEMSTROM and coll. Gastroenterology, 1983, 84, p. 787-794.
The test comprises determination every 10 minutes, for 3 hours and in situ, of the alkaline secretion of a duodenal segment 12 mm in length, with no Brunner glands and situated 2 cm from the pylorus.
The study is performed on male rats of about 350 g previously anaesthetized, in which the duodenal segment chosen in cannulated by 2 glass tubes in accordance with the technique described by the author, and in which a luminal perfusate consisting of 5 ml isotonic NaCl solution is maintained at 37° C.
The variations in the intraluminal alkaline secretion are measured by pHmetry every 10 minutes by means of an automated system maintaining a constant pH of 7.4 by in situ addition of a 0.04N solution of hydrochloric acid. Fifty minutes after the start of the experiment, the products under investigation are administered intravenously or intraarterially in an amount of 1 mg/kg and the volume of hydrochloric acid introduced, which is a reflection of the in situ increase in alkaline secretion, is measured every 10 minutes for 3 hours with respect to the start of the experiment, that is to say for 130 minutes after injection of the product under investigation.
The following are determined for each product:
a) The maximum increase in secretion in micro-eq/cm/h under the action of the drug, taking into account the basal secretion of the same animals observed for 50 minutes before administration of the product.
The results are shown in table 6, which follows, for the products (I) according to the invention administered intravenously in an amount of 1 mg/kg.

In a further series the target is PCP receptors. Kind of series: in vitro affinity for phencyclidine (PCP) receptors. It is filed as binding. The note with it: Table 3; read-out: PCP rec. IC50. As to the method:
as §1, §2

For the next series, the target named is T1, delta receptors (Cavia porcellus, UniProt A0A286XTF2).
T1 construct: from tissue
T1 sequence (A0A286XTF2 1-366): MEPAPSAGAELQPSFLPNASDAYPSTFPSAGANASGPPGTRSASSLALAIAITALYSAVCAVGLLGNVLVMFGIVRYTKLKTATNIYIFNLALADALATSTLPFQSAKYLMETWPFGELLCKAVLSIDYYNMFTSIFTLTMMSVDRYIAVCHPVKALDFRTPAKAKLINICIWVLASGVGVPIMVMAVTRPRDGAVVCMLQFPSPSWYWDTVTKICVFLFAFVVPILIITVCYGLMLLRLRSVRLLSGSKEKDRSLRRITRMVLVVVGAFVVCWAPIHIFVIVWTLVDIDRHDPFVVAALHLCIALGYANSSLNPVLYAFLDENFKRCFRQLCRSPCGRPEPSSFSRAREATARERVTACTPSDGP
Kind of series: in vitro affinity for delta receptors. The note with it: Table 3; read-out: delta rec. IC50. In kind it is binding. As to the method:
as §1, §2

A further series has as its target T2, sigma receptors (Cavia porcellus, UniProt Q60492).
T2 construct: sigma receptors of the cerebral membranes of the guinea-pig used in this study; from tissue; host or cells: guinea-pig cerebral membranes
Nature of the series: in vitro affinity for sigma receptors, competition with (+)[3H]SKF10,047. It is filed as binding, guinea-pig (cerebral membranes). As to the method:
The test is carried out by incubating solutions of suitable concentrations of the products with standard samples of membranes and determining, after filtration, the residual radioactivity of the solution.

The nature of series [2]: antagonism of amnesia caused by scopolamine, passive avoidance test. It is filed as in vivo, mice. To be noted: for % antagonism of the amnesia: 0.25 mg/kg orally, scopolamine 1 mg/kg i.p. 30 minutes later, latency after 24 hours; for antagonism of amnesia caused by scopolamine (in words): mouse, in vivo. Here is the method: The animal is introduced into the illuminated compartment, and when it moves to the dark compartment it receives an electric current (0.35 mA) through the base until it returns to the illuminated compartment, from where it is then removed.
After 24 hours, the operation is repeated. The mouse is replaced in the apparatus and it avoids entering into the dark compartment. The time which elapses before passage into this compartment is recorded; under the conditions of the experiment, the efficacy of the compounds under investigation in antagonizing the amnesic effect of scopolamine, which is administered intraperitoneally in an amount of 1 mg/kg 30 minutes before the animal is first introduced into the apparatus, can be evaluated.
In control mice which have received only scopolamine, the time elapsed before passage after 24 hours is remarkably lower than that observed in the untreated animals.
The study of the products according to the invention by this method is performed on groups of 18 mice and the products are administered orally on the first day in an amount of 0.25 mg/kg 30 minutes before administration of scopolamine i.p.

The nature of series [3]: inhibition of gastro-duodenal ulcers caused by cysteamine. In kind it is in vivo, Wistar female rats. The note with it: Rattus norvegicus; cysteamine hydrochloride 400 mg/kg s.c.; products orally or subcutaneously; read-out: ED50 - ulceration scores. Here is the method:
This activity is set in relation to the capacity of the products to cause an increase in the alkaline secretion in the duodenum in anaesthetized animals.
In this test, groups of 6 Wistar female rats with an average weight of 200 g receive a subcutaneous injection of cysteamine hydrochloride in an amount of 400 mg/kg. The products under investigation are administered orally or subcutaneously 1 h or, respectively, 30 minutes before the ulcerogenic agent.
Ten hours thereafter, the rats are sacrificed by elongation and their stomach and duodenum are removed, rinsed with physiological solution and mounted on a card. The presence of ulcers in the antro-pyloric-duodenal zone is examined and their area, expressed in mm^2, is evaluated by multiplying the two main perpendicular axis of the lesion. Statistical analysis of the results is performed with the aid of the Student test for the ulcerated areas in comparison with a control group receiving only excipient.
The results presented in table 5 are expressed in ED50 of ulceration scores, which are the effective doses, expressed in mg/kg product, which cause inhibition of 50% of the ulcerations caused by cysteamine.

The next series addresses T3, kappa receptors (Cavia porcellus, UniProt P41144).
T3 construct: from tissue
Kind of series: in vitro affinity for kappa receptors. In kind it is binding. Here is the method:
as §1, §2

Series [4] can be described thus: protection from convulsions induced by picrotoxin in mice. It is filed as in vivo, "Swiss" male mice. To be noted: 50 mg/kg i.p., picrotoxin 24 mg/kg i.p. 30 minutes later, * p<0.05, ** p<0.01, *** p<0.001. Here is the method:
b) The psychotropic properties of the compounds were determined by the protection from convulsions induced by picrotoxin in mice, which was realized in accordance with a method derived from that of Krall and coll., "Epilepsia", 1978, 19, p. 409-428.
The administration of picrotoxin to animals causes a convulsive attack characterized by a myoclonic extension syndrome followed by extension of the limbs leading to death of the animals. Certain substances, in particular those which act on the GABA/benzodiazepine/Cl-ionophor complex, provide protection of the animals from these convulsive attacks.
In practice, the study is carried out on groups of 10 "Swiss" male mice weighing about 20 g, to which the product under investigation is administered in aqueous solution either intraperitoneally (i.p.) or orally (p.o.).
An intraperitoneal injection of a solution of picrotoxin in an amount of 24 mg/kg in a volume of 0.2 ml per animal is then performed, either 30 minutes after intraperitoneal administration of the product or 60 minutes after oral administration of the product, the dose of the product injected in this way causing a clonic attack which leads to death of the untreated animals. Under the conditions of the test, suppression of the tonic extension phase is found in the animals treated.
The results are expressed:
either as the percentage of animals protected from this phase under the action of 50 mg/kg compound under investigation administered i.p. or 100 mg/kg p.o.,
or in the ED50 for each of these groups, which is the effective dose of the compound under investigation expressed in mg/kg which protects 50% of animals from this extension phase, the significance value of the results generally being indicated in the following manner: […]

A further series deals with animals. The note with it: in vivo; cited from earlier work.
The mark [5] stands for this setting: Table 2, (+)[3H]SKF10,047, guinea-pig cerebral membranes, read-out: IC50 (bonding affinity to sigma receptors).
The mark [6] stands for this setting: Table 3, read-out: kappa rec. IC50.
Where [7] appears, read: IC50 (bonding affinity to sigma receptors), Table 2, (+)[3H]SKF10,047, guinea-pig cerebral membranes.

Structures are written as SMILES. Counter-ions that a name gives are not always drawn. Like-named read-outs stand apart in the source and are kept apart here.

T2 sequence (Q60492 whole entry): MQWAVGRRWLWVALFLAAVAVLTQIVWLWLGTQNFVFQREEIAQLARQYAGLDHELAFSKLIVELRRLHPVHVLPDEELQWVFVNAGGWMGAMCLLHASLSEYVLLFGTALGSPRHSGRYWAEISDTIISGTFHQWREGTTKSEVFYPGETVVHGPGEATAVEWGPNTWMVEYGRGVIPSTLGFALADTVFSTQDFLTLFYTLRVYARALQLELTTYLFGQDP
T3 sequence (P41144 whole entry): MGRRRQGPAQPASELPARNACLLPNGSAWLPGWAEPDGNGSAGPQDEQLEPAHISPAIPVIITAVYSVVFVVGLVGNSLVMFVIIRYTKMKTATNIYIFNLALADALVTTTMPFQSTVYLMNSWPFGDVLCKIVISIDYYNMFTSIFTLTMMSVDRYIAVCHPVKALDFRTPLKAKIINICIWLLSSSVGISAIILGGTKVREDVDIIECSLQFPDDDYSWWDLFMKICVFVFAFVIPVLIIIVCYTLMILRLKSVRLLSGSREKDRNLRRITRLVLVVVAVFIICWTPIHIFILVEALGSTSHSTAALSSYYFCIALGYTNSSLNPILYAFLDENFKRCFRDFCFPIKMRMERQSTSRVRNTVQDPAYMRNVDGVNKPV

On to `CCC(CC=Cc1ccccc1)(c1ccccc1)N(C)CC1CCCCC1` (stereo not drawn) [Example 7, α-Cinnamyl-N-cyclohexylmethyl-α-ethyl-N-methyl-benzylamine], for which the IC50 is above 100 µM on mu receptors; 50.8 µM at PCP receptors; 51.8 µM on delta receptors; 0.032 µM on sigma receptors (setting [5]); 72.8 µM at kappa receptors (setting [6]). The “mu rec. relative value of the IC50” value in the series with mu receptors (relative to IC50 of sigma affinity = 1) is given as above 1000. In addition, the “Increase AUC 1 2 h” value in [1] worked out at 52.8. The Increase in secretion in series [1] came to 6.0 micro-eq/cm/h. Moreover, the “% antagonism of the amnesia” value in [2] stood at 56%. The ED50 in series [3] came to 10.5 mg/kg.
Consider `CCC(CC=Cc1ccccc1)(c1ccccc1)N(C)CC1CC1` (stereo not drawn) [Example 9, α-Cinnamyl-N-cyclopropylmethyl-α-ethyl-N-methyl-benzylamine], for which the IC50 on mu receptors was found to be 15.8 µM; on PCP receptors, 3.67 µM; on delta receptors, 83.8 µM; at sigma receptors (setting [7]) it was 0.024 µM; on sigma receptors (sigma rec. IC50, Table 3), 0.024 µM; on kappa receptors (setting [6]), 6.2 µM. In addition, in series [4], the “i.p.: % prot. (inhibition of convulsions induced by picrotoxin)” value turned out to be 90%. The “Increase AUC 1 2 h” value in series [1] came to 97.6. This compound had an Increase in secretion in [1] of 10.0 micro-eq/cm/h. The “% antagonism of the amnesia” value in series [2] was 76%. Also, in series [2], the “antagonism of amnesia caused by scopolamine (in words)” value is listed as “conclusive of an activity of the products according to the invention at a low dose”. The ED50 in series [3] came out at 26.2 mg/kg.
In the case of `CCC(CC=Cc1ccccc1)(c1ccccc1)N(C)CC1CCC1` (stereo not drawn) [Example 12, α-Cinnamyl-N-cyclobutylmethyl-α-ethyl-N-methyl-benzylamine], the IC50 came to 7.18 µM on mu receptors, 85.6 µM on delta receptors, 0.05 µM on sigma receptors (setting [5]) and 6.28 µM on kappa receptors (setting [6]). The “Increase AUC 1 2 h” value in series [1] is given as 41.6. For the same compound, the Increase in secretion in series [1] was found to be 7.0 micro-eq/cm/h. Moreover, the “% antagonism of the amnesia” value in series [2] was 98%. In [2], the “antagonism of amnesia caused by scopolamine (in words)” value is recorded as “conclusive of an activity of the products according to the invention at a low dose”. Besides, the ED50 in [3] is 12.2 mg/kg.
As to `Cc1ccccc1NC(=N)Nc1ccccc1C` [DTG, ditolylguanidine, reference compound], the IC50 on delta receptors was determined as 33.2 µM; against kappa receptors (kappa rec. IC50, Table 3), 6.49 µM. In the series with animals, the “toxicity on animals (in words)” value is on record as “excessive toxicity”.
`CCC(CC=Cc1ccccc1)(c1ccccc1)N(C)CC1CC1` (single isomer, unassigned) [Example 10, (+)-α-Cinnamyl-N-cyclopropyl-methyl-α-ethyl-N-methyl-benzylamine hydrochloride]: the “i.p.: % prot. (inhibition of convulsions induced by picrotoxin)” value in [4] (hydrochloride) is on record as 50%. The “Increase AUC 1 2 h” value in [1] turned out to be 66.2. In series [1], this compound displayed an Increase in secretion of 7.5 micro-eq/cm/h. Besides, the IC50 at delta receptors stood at 67.9 µM; at sigma receptors (setting [7]), 0.013 µM; on sigma receptors (sigma rec. IC50, Table 3), 0.013 µM; at kappa receptors (setting [6]) it was 23.8 µM. In [2] (hydrochloride), the “% antagonism of the amnesia” value was 76%. Moreover, the ED50 in [3] is 5 mg/kg.
For the compound `CCC(CC=Cc1ccccc1)(c1cccs1)N(C)CC1CC1` (stereo not drawn) [Example 21, α-Cinnamyl-N-cyclopropylmethyl-α-ethyl-N-methyl-2-thiophenemethylamine], the IC50 on mu receptors is 1.54 µM; at PCP receptors, 6.28 µM; on delta receptors, 7.39 µM; on sigma receptors (setting [5]), 0.095 µM; at kappa receptors (setting [6]), 1.2 µM. Also, the “i.p.: % prot. (inhibition of convulsions induced by picrotoxin)” value in series [4] is 50%. The ED50 in series [3] was 48.2 mg/kg.

The record behind these values is patent publication US5034419A, “N-cycloalkylalkylamines, process for their preparation, their use as medicament and their synthesis intermediates” (L'Oreal, priority 1988, dated 1991).
